Patent US10722501B2 (BAYER AKTIENGESELLSCHAFT, priority 2016, dated 2020)

The compounds below were run against T1, recombinant full-length human prolyl endopeptidase (PREP) (Homo sapiens, UniProt P48147) (assay: Biochemical human prolyl endopeptidase (PREP) assay with fluorescently labelled substrate). Details: substrate Z-Gly-Pro-AMC 50 μM, 32° C., 60 min; some as mean values from multiple independent determinations.
T1 construct: To recombinant full-length human prolyl endopeptidase (PREP, R&D-Systems, 4308-SE); purchased R&D-Systems 4308-SE
T1 sequence (P48147 1-710): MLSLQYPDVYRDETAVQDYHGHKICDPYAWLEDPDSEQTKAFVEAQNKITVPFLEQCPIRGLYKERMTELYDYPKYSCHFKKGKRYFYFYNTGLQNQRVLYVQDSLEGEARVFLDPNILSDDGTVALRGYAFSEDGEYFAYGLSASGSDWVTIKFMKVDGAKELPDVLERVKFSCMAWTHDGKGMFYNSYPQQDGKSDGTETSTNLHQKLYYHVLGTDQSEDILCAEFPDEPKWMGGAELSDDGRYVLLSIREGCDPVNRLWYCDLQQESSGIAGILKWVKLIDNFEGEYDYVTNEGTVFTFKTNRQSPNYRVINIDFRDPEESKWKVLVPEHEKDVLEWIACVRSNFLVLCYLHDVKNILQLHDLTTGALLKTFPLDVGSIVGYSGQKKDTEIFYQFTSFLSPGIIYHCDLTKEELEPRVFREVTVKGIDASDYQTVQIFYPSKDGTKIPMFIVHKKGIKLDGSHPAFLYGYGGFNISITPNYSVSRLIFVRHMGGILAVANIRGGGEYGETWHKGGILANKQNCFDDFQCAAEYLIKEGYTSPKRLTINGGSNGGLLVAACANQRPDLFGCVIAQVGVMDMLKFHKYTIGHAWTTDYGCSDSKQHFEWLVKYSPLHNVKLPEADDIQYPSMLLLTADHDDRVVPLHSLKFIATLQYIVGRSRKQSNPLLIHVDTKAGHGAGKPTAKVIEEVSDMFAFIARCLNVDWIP
Protocol: B-1 Biochemical Human Prolyl Endopeptidase (PREP) Assay for Identification of Inhibitors of PREP Activity Using a Fluorescently Labelled Substrate Principle of the Assay:
The enzymatic conversion of the fluorescent peptide substrate was observed on the basis of the measurement of the fluorescence intensity. The enzyme activity was determined by the ascertaining of the initial slope in the increase in fluorescence. Compounds that inhibit PREP were identified on the basis of the decrease in the initial slope compared to a reaction mixture without test compound.
Determination of Activity:
IC50 values were determined by the plotting of the percentage PREP activity against the concentration of the test substance by interpolation.
To recombinant full-length human prolyl endopeptidase (PREP, R&D-Systems, 4308-SE; final concentration, for example, 0.4 nM, volume: 25 μl) in reaction buffer (50 mM Tris-HCl, pH 7.5; 150 mM NaCl; 0.13% BSA, 5 mM EDTA, 3 mM GSH, 0.005% Brij-35) was added a test compound (in DMSO, in an appropriate final concentration range from 1 nM to 30 μM, volume: 1 μl) in a well of a 384-well microtitre plate. The reaction was initiated by adding the substrate Z-Gly-Pro-AMC (final concentration 50 μM; Z=carboxybenzyl; AMC=7-amino-4-methylcoumarin, volume: 25 μl). The progress of the PREP reaction was observed by measuring the fluorescence intensity in a Tecan SAFIRE II plate spectrophotometer at 32° C. over a period of 60 min (excitation wavelength: 360 nm, emission wavelength: 465 nm).
Table B-1 below collates the IC50 values thus obtained from the human prolyl endopeptidase assay for individual working examples of the invention (some as mean values from multiple independent individual determinations).

Row | Compound | IC50
1 | O=C(C1CCCc2nn(Cc3ccc(Cl)nc3)c(=O)n21)N1CCCC1 (racemic) [Example 31, (5RS)-2-[(6-Chloropyridin-3-yl)methyl]-5-(pyrrolidin-1-ylcarbonyl)-5,6,7,8-tetrahydro[1,2,4]triazolo[4,3-a]pyridin-3(2H)-one] | 2.9 nM
2 | O=C([C@@H]1CCCc2nn(CCc3ccc(F)cc3)c(=O)n21)N1CCC(F)(F)C1 [Example 519, (5S)-5-[(3,3-Difluoropyrrolidin-1-yl)carbonyl]-2-[2-(4-fluorophenyl)ethyl]-5,6,7,8-tetrahydro[1,2,4]triazolo[4,3-a]pyridin-3(2H)-one] | 1.4 nM
3 | O=C([C@@H]1CCCc2nn(Cc3ccc(Br)cc3)c(=O)n21)N1CC[C@H](F)C1 [Example 212, (5S)-2-(4-Bromobenzyl)-5-{[(3S)-3-fluoropyrrolidin-1-yl]carbonyl}-5,6,7,8-tetrahydro[1,2,4]triazolo[4,3-a]pyridin-3(2H)-one] | 0.041 nM
4 | O=C([C@@H]1CCCc2nn(CC3(c4ccc(F)cc4)CC3)c(=O)n21)N1CCC(F)(F)C1 [Example 353, (5S)-5-[(3,3-Difluoropyrrolidin-1-yl)carbonyl]-2-{[1-(4-fluorophenyl)cyclopropyl]methyl}-5,6,7,8-tetrahydro[1,2,4]triazolo[4,3-a]pyridin-3(2H)-one] | 2.3 nM
5 | Cc1cc(Cn2nc3n(c2=O)C(C(=O)N2CC[C@H](F)C2)CCC3)on1 (mixture of isomers) [Example 416, (5RS)-5-{[(3S)-3-Fluoropyrrolidin-1-yl]carbonyl}-2-[(3-methyl-1,2-oxazol-5-yl)methyl]-5,6,7,8-tetrahydro[1,2,4]triazolo[4,3-a]pyridin-3(2H)-one] | 3.4 nM
6 | O=C([C@@H]1CCCc2nn(CC3CC3)c(=O)n21)N1C[C@@H](F)[C@@H](F)C1 [Example 184, (5S)-2-(Cyclopropylmethyl)-5-{[(3R,4S)-3,4-difluoropyrrolidin-1-yl]carbonyl}-5,6,7,8-tetrahydro[1,2,4]triazolo[4,3-a]pyridin-3(2H)-one] | 4.5 nM
7 | O=C(C1C(C(F)(F)F)CCc2nn(Cc3ncc(Cl)cc3Cl)c(=O)n21)N1C[C@@H](F)[C@@H](F)C1 (mixture of isomers) [Example 287, (5RS,6RS)-2-[(3,5-Dichloropyridin-2-yl)methyl]-5-{[(3R,4S)-3,4-difluoropyrrolidin-1-yl]carbonyl}-6-(trifluoromethyl)-5,6,7,8-tetrahydro[1,2,4]triazolo[4,3-a]pyridin-3(2H)-one] | 23 nM
8 | O=C([C@@H]1CCCc2nn(Cc3ccc(F)c(Cl)c3)c(=O)n21)N1CC[C@H](F)C1 [Example 454, (5S)-2-(3-Chloro-4-fluorobenzyl)-5-{[(3S)-3-fluoropyrrolidin-1-yl]carbonyl}-5,6,7,8-tetrahydro[1,2,4]triazolo[4,3-a]pyridin-3(2H)-one] | 0.063 nM
9 | O=C(C1CCCc2nn(Cc3ccc(F)c(Cl)c3)c(=O)n21)N1CC(O)C1 (racemic) [Example 95, (5RS)-2-(3-Chloro-4-fluorobenzyl)-5-[(3-hydroxyazetidin-1-yl)carbonyl]-5,6,7,8-tetrahydro[1,2,4]triazolo[4,3-a]pyridin-3(2H)-one] | 9 nM
10 | Cc1ccc(C(C)n2nc3n(c2=O)[C@H](C(=O)N2CCCC2)CCC3)cc1 (mixture of isomers) [Example 502, (5S)-2-[(1 RS)-1-(4-Methylphenyl)ethyl]-5-(pyrrolidin-1-ylcarbonyl)-5,6,7,8-tetrahydro[1,2,4]triazolo[4,3-a]pyridin-3(2H)-one] | 4.1 nM
11 | O=C(C1CCCc2nn(Cc3cc(F)cc(C(F)(F)F)c3)c(=O)n21)N1CCCC1 (racemic) [Example 72] | 0.83 nM
12 | O=C([C@@H]1CCCc2nn(Cc3ccc(Br)cn3)c(=O)n21)N1C[C@@H](F)[C@@H](F)C1 [Example 504, (5S)-2-[(5-Bromopyridin-2-yl)methyl]-5-{[(3R,4S)-3,4-difluoropyrrolidin-1-yl]carbonyl}-5,6,7,8-tetrahydro[1,2,4]triazolo[4,3-a]pyridin-3(2H)-one] | 1.8 nM
13 | Cc1ccc(Cn2nc3n(c2=O)[C@H](C(=O)N2CC[C@H](C(F)F)C2)CCC3)cc1 [Example 143, (5S)-5-{[(3S)-3-(Difluoromethyl)pyrrolidin-1-yl]carbonyl}-2-(4-methylbenzyl)-5,6,7,8-tetrahydro[1,2,4]triazolo[4,3-a]pyridin-3(2H)-one] | 13.1 nM
14 | O=C([C@@H]1CCCc2nn(Cc3ccc(C(F)(F)F)nc3)c(=O)n21)N1CCC2CC21 (single isomer, unassigned) [Example 200] | 455 nM

More lines, in order of falling IC50, values ahead:

Row | IC50 | Compound
15 | 90 nM | O=C(C1CCc2nn(Cc3ccc(C(F)(F)F)nc3)c(=O)n21)N1CC(F)C1 (racemic) [Example 170, (5RS)-5-[(3-Fluoroazetidin-1-yl)carbonyl]-2-{[6-(trifluoromethyl)pyridin-3-yl]methyl}-2,5,6,7-tetrahydro-3H-pyrrolo[2,1-c][1,2,4]triazol-3-one]
16 | 64 nM | O=C(C1C(C(F)(F)F)CCc2nn(Cc3ncc(Cl)cc3F)c(=O)n21)N1CC(F)C1 (single isomer, unassigned) [Example 309, (5RS,6RS)-2-[(5-Chloro-3-fluoropyridin-2-yl)methyl]-5-[(3-fluoroazetidin-1-yl)carbonyl]-6-(trifluoromethyl)-5,6,7,8-tetrahydro[1,2,4]triazolo[4,3-a]pyridin-3(2H)-one]
17 | 12.2 nM | O=C(C1CCCc2nn(Cc3ccnc(Cl)c3)c(=O)n21)N1CCCC1 (racemic) [Example 59, (5RS)-2-[(2-Chloropyridin-4-yl)methyl]-5-(pyrrolidin-1-ylcarbonyl)-5,6,7,8-tetrahydro[1,2,4]triazolo[4,3-a]pyridin-3(2H)-one]
18 | 6.3 nM | O=C(C1CCc2nn(Cc3ccc(Cl)nc3)c(=O)n21)N1C[C@@H](F)[C@@H](F)C1 (mixture of isomers) [Example 172, (5RS)-2-[(6-Chloropyridin-3-yl)methyl]-5-{[(3R,4S)-3,4-difluoropyrrolidin-1-yl]carbonyl}-2,5,6,7-tetrahydro-3H-pyrrolo[2,1-c][1,2,4]triazol-3-one]
19 | 4.3 nM | O=C([C@@H]1CCCc2nn(Cc3ccnc(C(F)(F)F)c3F)c(=O)n21)N1CCSC1 [Example 485, (5S)-2-{[3-Fluoro-2-(trifluoromethyl)pyridin-4-yl]methyl}-5-(1,3-thiazolidin-3-ylcarbonyl)-5,6,7,8-tetrahydro[1,2,4]triazolo[4,3-a]pyridin-3(2H)-one]
20 | 1.28 nM | O=C(C1CCCc2nn(Cc3ccc(Cl)cc3)c(=O)n21)N1CCCC1 (racemic) [Example 27, (5RS)-2-(4-Chlorobenzyl)-5-(pyrrolidin-1-ylcarbonyl)-5,6,7,8-tetrahydro[1,2,4]triazolo[4,3-a]pyridin-3(2H)-one]
21 | 1.1 nM | COc1ccc(Cn2nc3n(c2=O)[C@H](C(=O)N2CC[C@H](F)C2)CCC3)cn1 [Example 430, (5S)-5-{[(3S)-3-Fluoropyrrolidin-1-yl]carbonyl}-2-[(6-methoxypyridin-3-yl)methyl]-5,6,7,8-tetrahydro[1,2,4]triazolo[4,3-a]pyridin-3(2H)-one]
22 | 0.715 nM | O=C([C@@H]1CCCc2nn(Cc3cnc(C(F)(F)F)c(Cl)c3)c(=O)n21)N1C[C@@H](F)[C@@H](F)C1 [Example 440, (5S)-2-{[5-Chloro-6-(trifluoromethyl)pyridin-3-yl]methyl}-5-{[(3R,4S)-3,4-difluoropyrrolidin-1-yl]carbonyl}-5,6,7,8-tetrahydro[1,2,4]triazolo[4,3-a]pyridin-3(2H)-one]
23 | 0.21 nM | O=C([C@@H]1CCCc2nn(Cc3ccc(F)cc3Cl)c(=O)n21)N1CCC(F)(F)C1 [Example 477, (5S)-2-(2-Chloro-4-fluorobenzyl)-5-[(3,3-difluoropyrrolidin-1-yl)carbonyl]-5,6,7,8-tetrahydro[1,2,4]triazolo[4,3-a]pyridin-3(2H)-one]
